Values of other authors in patent US6797472B1, “Variation in drug response related to polymorphisms in β2-adrenergic receptor” (Genaissance Pharmaceuticals, Inc., priority 1999, dated 2004).

Columns and labels:
Ile164 receptor [1] = biological target: T1, Ile164 receptor (Homo sapiens, UniProt P07550, T164I); details: competition binding with [125I]cyp in the presence of GTP; reference 4
Ile164 receptor [2] = biological target: T1, Ile164 receptor; details: previous studies

SMILES	binding affinity at Ile164 receptor (Ile164 receptor [1])	stimulation of adenylyl cyclase by Ile164 receptor compared to Thr164 receptor (Ile164 receptor [2])
NCCc1ccc(O)c(O)c1 [dopamine]	normal binding affinities	does not show decreased stimulation
CNC[C@H](O)c1ccc(O)c(O)c1 [epinephrine]	small decrease in binding affinity	decreased stimulation
NC[C@H](O)c1ccc(O)c(O)c1 [norepinephrine]	small decrease in binding affinity	
